Data taken from US8371292B2, “Use of ciclesonide for the treatment of respiratory diseases” (Nycomed GmbH, priority 2003, dated 2013).

Legend:
[1] = cited from earlier work
[2] = clinical study in children with mild asthma: lower leg growth rate by knemometry; format: in vivo, human; settings: for lower leg growth rate: 2-week treatment, children 6 to 12 years, placebo 0.412 mm/week
Experimental: (§1) The present study was conducted to determine the effects of ciclesonide at doses intended for the use in children on lower leg growth rate and HPA function in children with mild asthma.
(§2) METHODS: In a double blind, randomized, placebo-controlled, 4-period cross-over study, 24 children, 6 to 12 years of age, received ciclesonide 40, 80 and 160 μg or placebo via HFA-MDI once daily in the evening. Each 2-week treatment period was followed by a 2-week washout. Knemometry was performed at the beginning and the end of each treatment period. Cortisol levels in 12 h overnight urine were measured at the end of each treatment period.

[3] = cited from earlier work; remark: listed apart in the source
[4] = clinical study in children with mild asthma: HPA function, cortisol in 12 h overnight urine; format: in vivo, human; settings: 40, 80 and 160 μg once daily or placebo, 12 h overnight urine at end of each 2-week period
Experimental: as §1, §2

[5] = clinical study in children with mild asthma: tolerability; format: in vivo, human; settings: 40, 80 and 160 μg once daily, 2 weeks
Experimental: as §1, §2

[6] = 40, 80 and 160 μg once daily, 2 weeks

In the case of `CC(C)C(=O)OCC(=O)[C@@]12O[C@H](C3CCCCC3)O[C@@H]1C[C@H]1[C@@H]3CCC4=CC(=O)C=C[C@]4(C)[C@H]3[C@@H](O)C[C@@]12C` [ciclesonide, [11β,16α(R)]-16,17-[(Cyclohexylmethylen)bis(oxy)]-11-hydroxy-21-(2-methyl-1-oxopropoxy)pregna-1,4-dien-3,20-dion], the systemic activity ([1]; in vivo) is listed as “low systemic activity”, the “anti-inflammatory activity compared with budesonide” value ([1]; relative to budesonide) is listed as “higher” and the “systemic activity compared with budesonide” value ([1]; relative to budesonide) is listed as “three times lower”. For the same molecule, the “lower leg growth rate” value ([2]; 40 μg once daily in the evening via HFA-MDI) was 0.425 mm/week, the “lower leg growth rate” value ([2]; 80 μg once daily in the evening via HFA-MDI) was 0.397 mm/week and the “lower leg growth rate” value ([2]; 160 μg once daily in the evening via HFA-MDI) was 0.370 mm/week. The “difference in lower-leg growth rates between ciclesonide treatments and placebo” value [2, 6] was “No statistically significant differences”, the “dose-response effect on lower leg growth rate” value [2, 6] was “no statistically significant dose-response effect” and the “concentration of the drug in the lungs” value ([3]; in vivo) was “high”. The “metabolism by liver oxidases” value ([3]; in vivo) was “very high”, the plasma half-life ([3]; in vivo) was “low plasma half-life” and the “absorption after oral administration” value ([3]; oral) was “only moderately absorbed”. For the same molecule, the “urinary free cortisol adjusted for creatinine, difference between treatments” value [4] was “no difference” and the tolerability [5] was “well tolerated”.
